Results from article PMC10618370, “Mur ligase F as a new target for the flavonoids quercitrin, myricetin, and (–)-epicatechin” (Journal of Computer-Aided Molecular Design, 2023).
Read-outs that look alike come from different tables or passages of the source.

Key:
E. coli MurE = E. coli MurE (Escherichia coli, UniProt P22188); test: MurE inhibition assay (Malachite green); format: biochemical; conditions: 0.25 h, read-out: RA (%) @ 100 µM MurE
Experimental: (§1) Inhibition of the Mur ligases was determined using the Malachite green assay, with slight modifications. […] In all cases, the final concentration of DMSO was 5% (v/v).
(§2) After incubation for 15 min at 37 °C, the enzyme reaction was terminated by the addition of 100 µM Biomol green reagent®, and the absorbance was measured at 650 nm after 5 min. Experiments to determine the RA run in triplicate. Residual activities were calculated with respect to control assays without the tested compounds, but with the 5% DMSO carrier. The IC50 values were determined by measuring the residual activities at seven different compound concentrations, and they represent the concentration of the compound at which the residual activity was 50%. IC50 values were obtained by plotting the residual enzyme activities against the applied inhibitor concentrations, fitting the experimental data to the 4-parameter Hill equation: Y=Bottom-Top-Bottom/1+10^logIC50-X×HillSlope , where X is the logarithm of the inhibitor concentration, and Y is the residual activity. The IC50 values were determined in three independent experiments. GraphPad Prism 8.2.0 (GraphPad Software, San Diego, CA, USA) was used for the fitting procedure.
(§3) The assay detects the phosphate formed in each enzyme reaction. To avoid any possibility of the compounds inhibiting the enzymes due to aggregation, a detergent (0.005% Triton-X114) was added to the test system.

E. coli MurD = E. coli MurD (Escherichia coli, UniProt P14900); test: MurD inhibition assay (Malachite green); format: biochemical; conditions: 0.25 h, read-out: RA (%) @ 100 µM MurD
Experimental: as §1, §2, §3

E. coli (ATCC 25,922) = test: Antibacterial assay, broth microdilution MIC; format: cell-based; conditions: for MIC: Escherichia coli
Experimental: (§4) Antimicrobial testing was performed by the broth microdilution method in 96-well plates following the Clinical and Laboratory Standards Institute guidelines and European Committee on Antimicrobial Susceptibility Testing recommendations (Clinical and Laboratory Standards Institute). Bacterial suspensions equivalent to 0.5 McFarland turbidity standard were diluted with cation-adjusted Mueller–Hinton broth with TES buffering (ThermoFisher Scientific), for a final inoculum of 10^5 CFU/ mL. Compounds dissolved in DMSO and the inoculum were mixed and incubated for 20 h at 35 °C. […] The MICs were determined against two reference bacterial strains, S. aureus (ATCC 29,213) and E. coli (ATCC 25,922). Tetracycline was used as the positive control on every assay plate, with MICs of 0.5 and 1 µg/mL for S. aureus and E. coli, respectively. All MICs were determined in three independent experiments.

S. aureus (ATCC 29,213) = test: Antibacterial assay, broth microdilution MIC; format: cell-based; conditions: for MIC: Staphylococcus aureus
Experimental: as §4

E. coli MurF = E. coli MurF (Escherichia coli, UniProt P11880); test: MurF inhibition assay (Malachite green); format: biochemical; conditions: for remaining activity at 100 µM: 0.25 h, residual activity at 100 µM compound, mean ± SD of three independent experiments, read-out: RA (%) @ 100 µM MurF; for IC50: seven compound concentrations, 4-parameter Hill fit, three independent experiments
Experimental: as §1, §2, §3

E. coli MurC = E. coli MurC (Escherichia coli, UniProt P17952); test: MurC inhibition assay (Malachite green); format: biochemical; conditions: 0.25 h, read-out: RA (%) @ 100 µM MurC
Experimental: as §1, §2, §3

[1] = residual activity at 100 µM compound, mean ± SD of three independent experiments
[2] = ATCC25, broth microdilution, 20 h at 35 °C, read-out: MIC E.coli
[3] = ATCC29, broth microdilution, 20 h at 35 °C, read-out: MIC S.aureus
[4] = ATCC25, 20 h, read-out: MIC E.coli
[5] = ATCC29, 20 h, read-out: MIC S.aureus

E. coli MurD, sequence (P14900 whole entry): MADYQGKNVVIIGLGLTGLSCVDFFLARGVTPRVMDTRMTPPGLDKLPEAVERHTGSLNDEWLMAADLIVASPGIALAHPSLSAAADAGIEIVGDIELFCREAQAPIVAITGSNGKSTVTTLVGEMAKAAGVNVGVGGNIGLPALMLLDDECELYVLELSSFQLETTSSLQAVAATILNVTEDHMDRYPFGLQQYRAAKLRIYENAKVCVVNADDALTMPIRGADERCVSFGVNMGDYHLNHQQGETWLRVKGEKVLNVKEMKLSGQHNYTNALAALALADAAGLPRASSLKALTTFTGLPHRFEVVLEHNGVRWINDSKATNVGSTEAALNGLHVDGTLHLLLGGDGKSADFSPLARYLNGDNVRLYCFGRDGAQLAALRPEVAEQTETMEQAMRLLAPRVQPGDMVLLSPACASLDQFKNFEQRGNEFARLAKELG
E. coli MurC, sequence (P17952 whole entry): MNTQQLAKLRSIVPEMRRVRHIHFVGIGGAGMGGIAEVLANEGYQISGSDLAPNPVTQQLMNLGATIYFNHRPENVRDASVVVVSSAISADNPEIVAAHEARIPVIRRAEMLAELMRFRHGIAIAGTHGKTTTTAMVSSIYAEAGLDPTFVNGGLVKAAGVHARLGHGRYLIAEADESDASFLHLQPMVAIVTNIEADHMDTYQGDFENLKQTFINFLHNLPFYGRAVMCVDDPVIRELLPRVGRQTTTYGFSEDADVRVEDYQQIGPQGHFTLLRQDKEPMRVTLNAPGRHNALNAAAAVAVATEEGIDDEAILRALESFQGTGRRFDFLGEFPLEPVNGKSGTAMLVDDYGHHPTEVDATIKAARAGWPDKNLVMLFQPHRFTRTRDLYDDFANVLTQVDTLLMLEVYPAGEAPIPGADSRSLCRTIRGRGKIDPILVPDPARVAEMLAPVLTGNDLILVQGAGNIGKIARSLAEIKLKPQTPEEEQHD
E. coli MurE, sequence (P22188 whole entry): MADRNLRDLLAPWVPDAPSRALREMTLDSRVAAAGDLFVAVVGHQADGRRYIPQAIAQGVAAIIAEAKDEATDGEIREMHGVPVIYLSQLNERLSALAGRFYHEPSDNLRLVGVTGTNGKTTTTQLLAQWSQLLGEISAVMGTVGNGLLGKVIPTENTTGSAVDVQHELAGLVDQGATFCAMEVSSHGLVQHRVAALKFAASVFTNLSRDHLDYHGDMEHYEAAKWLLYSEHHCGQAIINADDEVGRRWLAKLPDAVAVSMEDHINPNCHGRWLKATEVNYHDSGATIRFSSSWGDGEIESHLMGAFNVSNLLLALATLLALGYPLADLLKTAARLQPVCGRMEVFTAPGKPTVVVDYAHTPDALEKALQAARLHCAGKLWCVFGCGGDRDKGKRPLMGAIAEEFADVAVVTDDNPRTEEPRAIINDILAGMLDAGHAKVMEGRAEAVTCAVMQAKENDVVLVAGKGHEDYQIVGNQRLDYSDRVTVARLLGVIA
E. coli MurF, sequence (P11880 whole entry): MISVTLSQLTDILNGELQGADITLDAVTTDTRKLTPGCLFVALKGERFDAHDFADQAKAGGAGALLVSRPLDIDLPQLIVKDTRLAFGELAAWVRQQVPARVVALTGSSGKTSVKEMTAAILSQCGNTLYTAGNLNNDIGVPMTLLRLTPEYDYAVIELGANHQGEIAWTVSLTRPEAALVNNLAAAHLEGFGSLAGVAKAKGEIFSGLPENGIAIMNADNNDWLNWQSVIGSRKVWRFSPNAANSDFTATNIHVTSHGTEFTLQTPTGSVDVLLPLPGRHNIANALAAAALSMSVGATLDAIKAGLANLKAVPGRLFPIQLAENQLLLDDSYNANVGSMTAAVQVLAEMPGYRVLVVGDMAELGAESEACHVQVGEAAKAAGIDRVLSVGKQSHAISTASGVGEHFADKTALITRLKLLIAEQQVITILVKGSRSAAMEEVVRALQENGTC

SMILES | remaining activity at 100 µM (E. coli MurE; [1]) [%] | remaining activity at 100 µM (E. coli MurD; [1]) [%] | MIC (E. coli (ATCC 25,922); [2]) [µM] | MIC (S. aureus (ATCC 29,213); [3]) [µM] | remaining activity at 100 µM (E. coli MurF) [%] | remaining activity at 100 µM (E. coli MurC; [1]) [%] | Inhibition of growth of S. aureus (in words) (S. aureus (ATCC 29,213); broth microdilution) | remaining activity at 100 µM (E. coli MurE) [%] | remaining activity at 100 µM (E. coli MurD) [%] | remaining activity at 100 µM (E. coli MurC) [%] | MIC (S. aureus (ATCC 29,213); ATCC29, broth microdilution, 20 h at 35 °C, read-out: MIC S. aureus) [µM] | MIC (E. coli (ATCC 25,922); ATCC25, positive control on every assay plate, read-out: MIC E. coli, positive control) [µg/mL] | MIC (S. aureus (ATCC 29,213); ATCC29, positive control on every assay plate, read-out: MIC S. aureus, positive control) [µg/mL] | MIC (E. coli (ATCC 25,922); [4]) [µM] | Inhibition of growth of E. coli (in words) (E. coli (ATCC 25,922); broth microdilution) | MIC (S. aureus (ATCC 29,213); [5]) [µM] | IC50 (E. coli MurF) [µM]
Oc1cc(O)c2c(c1)O[C@H](c1ccc(O)c(O)c1)[C@@H](O)C2 [Compound 22, (+)-catechin] | 88 ± 8 | 93 ± 8 | > 250 | > 250 | 100 ± 10 | 100 ± 10 |  |  |  |  |  |  |  |  |  |  | 
CC(C)=CCc1c(O)cc(O)c2c1O[C@H](c1ccc(O)cc1)CC2=O [Compound 3] | 87 ± 9 | 100 ± 8 | > 250 | 62 | 71 ± 7 | 95 ± 10 | inhibit the growth |  |  |  |  |  |  |  |  |  | 
CC1OC(OCC2OC(Oc3c(-c4ccc(O)c(O)c4)oc4cc(O)cc(O)c4c3=O)C(O)C(O)C2O)C(O)C(O)C1O (centres unmarked) [Compound 7] | 100 ± 10 | 97 ± 9 | > 250 | > 250 | 89 ± 10 | 100 ± 10 |  |  |  |  |  |  |  |  |  |  | 
O=c1c(O[C@@H]2O[C@H](CO)[C@@H](O)[C@H](O)[C@H]2O)c(-c2ccc(O)c(O)c2)oc2cc(O)cc(O)c12 [Compound 8] | 97 ± 8 | 100 ± 9 | > 250 | > 250 | 88 ± 9 | 95 ± 9 |  |  |  |  |  |  |  |  |  |  | 
COc1cc(O)c(CC=C(C)C)c2c1C(=O)C[C@@H](c1ccc(O)cc1)O2 [Compound 2] | 77 ± 7 | 100 ± 10 | > 250 | 250 | 78 ± 9 | 86 ± 8 | inhibit the growth |  |  |  |  |  |  |  |  |  | 
O=C1C[C@@H](c2ccc(O)cc2)Oc2cc(O)cc(O)c21 [Compound 5] | 98 ± 9 | 100 ± 9 | > 250 | > 250 | 87 ± 9 | 97 ± 8 |  |  |  |  |  |  |  |  |  |  | 
COc1ccc([C@@H]2CC(=O)c3c(O)cc(O)cc3O2)cc1O [Compound 1] | 100 ± 10 | 94 ± 9 | > 250 | > 250 | 87 ± 8 | 100 ± 9 |  |  |  |  |  |  |  |  |  |  | 
O=c1c(OC2OC(CO)C(O)C(O)C2O)c(-c2ccc(O)c(O)c2)oc2cc(O)cc(O)c12 (centres unmarked) [Compound 9] | 100 ± 8 | 100 ± 8 | > 250 | > 250 | 90 ± 8 | 89 ± 8 |  |  |  |  |  |  |  |  |  |  | 
O=c1c(O)c(-c2ccc(O)c(O)c2)oc2cc(O)cc(O)c12 [Compound 14, Quercetin] |  |  | > 250 | 250 |  |  | inhibit the growth | 28 ± 4 | 43 ± 6 | 41 ± 5 |  |  |  |  |  |  | 
CC1OC(Oc2c(-c3cc(O)c(O)c(O)c3)oc3cc(O)cc(O)c3c2=O)C(O)C(O)C1O (centres unmarked) [Compound 11] | 100 ± 10 | 89 ± 7 | > 250 | > 250 | 86 ± 9 | 97 ± 7 |  |  |  |  |  |  |  |  |  |  | 
O=c1cc(-c2ccc(O)c(O)c2)oc2cc(OC3OC(CO)C(O)C(O)C3O)cc(O)c12 (centres unmarked) [Compound 15] | 100 | 75 ± 6 | > 250 | > 250 | 92 ± 9 | 100 ± 9 |  |  |  |  |  |  |  |  |  |  | 
COc1cc(O)c(CC=C(C)C)c(O)c1C(=O)/C=C/c1ccc(O)cc1 [Compound 23, xanthohumol] | 82 ± 7 | 91 ± 10 | > 250 | 31 | 72 ± 8 | 86 ± 8 | inhibit the growth |  |  |  | 31 |  |  |  |  |  | 
COc1cc(O)c2c(=O)c(O)c(-c3ccc(O)c(O)c3)oc2c1 [Compound 13] | 82 ± 8 | 71 ± 8 | > 250 | > 250 | 51 ± 6 | 66 ± 7 |  |  |  |  |  |  |  |  |  |  | 
CN(C)[C@@H]1C(O)=C(C(N)=O)C(=O)[C@@]2(O)C(O)=C3C(=O)c4c(O)cccc4[C@@](C)(O)[C@H]3C[C@@H]12 [Tetracycline, reference compound] |  |  |  |  |  |  |  |  |  |  |  | 1 | 0.5 |  |  |  | 
Cc1c(O)cc(O)c2c1O[C@H](c1ccccc1)CC2=O [Compound 4] | 100 ± 9 | 97 ± 8 | > 250 | > 250 | 88 ± 9 | 91 ± 9 |  |  |  |  |  |  |  |  |  |  | 
O=c1cc(-c2ccccc2)oc2cc(O)cc(O)c12 [Compound 17] | 83 ± 8 | 71 ± 9 | > 250 | > 250 | 100 ± 8 | 100 ± 10 |  |  |  |  |  |  |  |  |  |  | 
C[C@@H]1O[C@@H](Oc2c(-c3ccc(O)c(O)c3)oc3cc(O)cc(O)c3c2=O)[C@H](O)[C@H](O)[C@H]1O [Compound 10, quercitrin] | 98 ± 9 | 77 ± 9 |  |  |  | 98 ± 10 | inactive |  |  |  |  |  |  | > 250 | inactive | > 250 | 143 ± 18
O=c1c(O)c(-c2cc(O)c(O)c(O)c2)oc2cc(O)cc(O)c12 [Compound 12, myricetin] | 66 ± 7 | 87 ± 9 | > 250 | > 250 |  | 87 ± 8 | inactive |  |  |  |  |  |  |  | inactive |  | 139 ± 13
COc1cc(OC)c2c(=O)cc(-c3ccc(OC)c(OC)c3)oc2c1 [Compound 19] | 100 ± 9 | 100 ± 10 |  |  | 100 ± 9 | 100 ± 9 |  |  |  |  |  |  |  | > 250 |  | > 250 | 
COc1cc([C@@H]2[C@H]3CO[C@@]4(O)C(=O)[C@@H]2C=C([C@H]2Oc5cc(O)cc(O)c5C(=O)[C@@H]2O)[C@@H]34)ccc1O [Compound 24, silydianin] | 93 ± 9 | 95 ± 9 | > 250 | > 250 | 99 ± 7 | 100 ± 7 |  |  |  |  |  |  |  |  |  |  | 
O=c1c(O)c(-c2ccccc2)oc2cc(O)cc(O)c12 [Compound 16] | 100 ± 10 | 91 ± 7 | > 250 | 250 | 100 ± 10 | 100 ± 8 | inhibit the growth |  |  |  |  |  |  |  |  |  | 
